The results in this text go back to US12497398B2, “Potent and selective covalent inhibitors of serine-arginine protein kinase (SRPK) 1 and SRPK2 and uses thereof” (DANA-FARBER CANCER INSTITUTE, INC., priority 2020, dated 2025).

One assay deals with SRPK2 (Homo sapiens, UniProt P78362). Kind of assay: Z'-LYTE kinase assay, SRPK2 inhibition. It counts as biochemical. The procedure:
(§1) IC50 values were determined by Z'-LYTE® kinase assay (catalog number PV3193, Invitrogen™) as described in Hatcher et al., Cell Chem. Biol. 25:460-470 (2018).

A further assay concerns the target SRPK1 (Homo sapiens, UniProt Q96SB4). Kind of assay: Z'-LYTE kinase assay, SRPK1 inhibition. The class given is biochemical. The procedure:
as §1

Where [1] appears, read: Z'-LYTE kinase assay, read-out: IC50 (nM) SRPK2.
[2] abbreviates: Z'-LYTE kinase assay, read-out: IC50 (nM) SRPK1.

Where two headings read alike, the source gives them in different places.

SRPK2, sequence (P78362 whole entry): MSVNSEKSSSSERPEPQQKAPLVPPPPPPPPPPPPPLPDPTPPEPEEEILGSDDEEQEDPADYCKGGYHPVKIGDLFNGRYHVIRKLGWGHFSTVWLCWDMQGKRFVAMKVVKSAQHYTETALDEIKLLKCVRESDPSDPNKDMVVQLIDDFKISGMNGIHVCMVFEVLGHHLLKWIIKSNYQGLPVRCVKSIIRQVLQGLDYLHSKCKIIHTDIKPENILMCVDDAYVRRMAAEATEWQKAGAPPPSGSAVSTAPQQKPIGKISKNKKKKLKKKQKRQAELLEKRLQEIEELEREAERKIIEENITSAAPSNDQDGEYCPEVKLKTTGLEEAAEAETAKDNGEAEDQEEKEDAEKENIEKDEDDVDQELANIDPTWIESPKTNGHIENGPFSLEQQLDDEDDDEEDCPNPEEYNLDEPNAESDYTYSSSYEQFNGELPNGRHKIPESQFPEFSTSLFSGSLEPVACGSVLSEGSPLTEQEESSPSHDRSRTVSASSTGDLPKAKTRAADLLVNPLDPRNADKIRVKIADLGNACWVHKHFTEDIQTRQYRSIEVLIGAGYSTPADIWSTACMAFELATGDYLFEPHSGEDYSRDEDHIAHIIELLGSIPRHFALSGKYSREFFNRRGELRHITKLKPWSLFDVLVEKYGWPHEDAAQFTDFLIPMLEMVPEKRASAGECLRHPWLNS
SRPK1, sequence (Q96SB4 whole entry): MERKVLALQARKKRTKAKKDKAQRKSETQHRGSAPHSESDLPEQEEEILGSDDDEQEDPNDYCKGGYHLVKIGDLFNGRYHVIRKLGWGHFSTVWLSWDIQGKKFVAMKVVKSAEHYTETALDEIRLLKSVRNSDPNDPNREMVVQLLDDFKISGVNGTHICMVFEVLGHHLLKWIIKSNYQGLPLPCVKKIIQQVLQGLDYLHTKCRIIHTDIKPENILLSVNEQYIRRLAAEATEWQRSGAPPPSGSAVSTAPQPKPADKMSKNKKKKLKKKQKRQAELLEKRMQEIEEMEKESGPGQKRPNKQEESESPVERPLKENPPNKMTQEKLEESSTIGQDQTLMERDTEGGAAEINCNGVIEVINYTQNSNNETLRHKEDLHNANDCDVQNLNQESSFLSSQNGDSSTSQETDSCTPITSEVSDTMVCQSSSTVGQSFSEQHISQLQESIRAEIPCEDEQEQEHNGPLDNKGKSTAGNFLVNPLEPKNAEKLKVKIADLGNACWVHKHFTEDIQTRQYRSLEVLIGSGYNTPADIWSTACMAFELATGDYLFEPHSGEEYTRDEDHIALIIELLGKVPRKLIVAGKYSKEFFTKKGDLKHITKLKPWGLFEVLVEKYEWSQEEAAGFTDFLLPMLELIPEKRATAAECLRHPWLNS

For orientation: IC50 means the concentration needed to halve the response being measured. Turning to `CCc1cc2c(=O)c3c4ccc(C#N)cc4[nH]c3n(C(C)C)c2cc1-c1cccc(S(=O)(=O)F)c1` [Compound 1, 3-(8-cyano-2-ethyl-5-isopropyl-11-oxo-6,11-dihydro-5H-indolo[2,3-b]quinolin-3-yl)benzenesulfonyl fluoride], the IC50 on SRPK2 (setting [1]) is 9 nM; on SRPK1 (setting [2]), 6 nM.

Consider `COc1cc2c(=O)c3c4ccc(C#N)cc4[nH]c3n(C(C)C)c2cc1-c1cccc(S(=O)(=O)F)c1` [Compound 2, 3-(8-cyano-5-isopropyl-2-methoxy-11-oxo-6,11-dihydro-5H-indolo[2,3-b]quinolin-3-yl)benzenesulfonyl fluoride], for which the IC50 against SRPK2 is 5 nM; on SRPK1, 4 nM.

With `COc1cc2c(=O)c3c4ccc(C#N)cc4[nH]c3n(C(C)C)c2cc1-c1cncc(S(=O)(=O)F)c1` [Compound 3, 5-(8-cyano-5-isopropyl-2-methoxy-11-oxo-6,11-dihydro-5H-indolo[2,3-b]quinolin-3-yl)pyridine-3-sulfonyl fluoride], the IC50 at SRPK2 (setting [1]) came to 5 nM; on SRPK1 (setting [2]), 6 nM.
